Here are results for two molecules from patent US9078929B2, “ε-Polylysine conjugates and the use thereof” (Merck Patent GmbH, priority 2009, dated 2015).

The nature of series [1]: Comparative planar scintigraphs, rat model. Type of series: in vivo. The source says:
(§1) The uptake of ^99mTc-MAG3 and of ^99mTc-DMSA are compared with the uptake of (ε-L-polylysine-DOTA, loaded with ^111In) in the rat and mouse model in planar scintigraphs.

Series [2] can be described thus: Comparative planar scintigraphs, mouse model. It counts as in vivo.
From the text: as §1

In the next series the test system is proteases. The following applies: in contrast to α-polylysine; cited from earlier work.

For `O=C(O)CNC(=O)CNC(=O)CNC(=O)CS` [^99mTc-MAG3, mercaptoacetyltriglycine, metal not drawn], the “kidney to background ratio compared with ε-L-polylysine-DOTA loaded with 111In” value in series [1] and in series [2] was “worse kidney to background ratio” throughout.

As to ε-polylysine, the “enzymatic degradation by proteases” value with proteases is “not enzymatically degraded”.
